Experimental data as given in patent publication US20060251714A1, “Pharmaceutical formulations of amyloid inhibiting compounds” (priority 2005, published 2006).
Where two headings read alike, the source gives them in different places.

Key:
[1] = Example 10: 3-APS concentration in cerebrospinal fluid of AD patients; assay type: in vivo; conditions: human
Description: (§1) A multicenter, randomized, double-blind, placebo-controlled and parallel designed study is made with 3-APS in the formulation described in Table 5 above in patients suffering from mild to moderate Alzheimer's Disease (AD). An objective of this study is to assess the safety and tolerability of 3-APS and to assess its pharmacokinetics in AD patients. A total of fifty-eight (58) mild to moderate AD patients (MMSE scores=13 to 26) are enrolled from 6 centers in the United States. Patients are randomized to receive in 1:1:1:1 ratio of NC-758-1 at 50, 100, 150 mg BID or placebo BID for 12 weeks. Study medication is administered orally (tablet). For doses at multiples of 50 mg, multiple 50 mg tables are administered. Each patient is evaluated on 6 occasions at screening, baseline [Week 0], weeks 2, 4, 8 and 12. Blood samples are collected from each patient prior to dosing and at specified time points through 12 h post-dose after the first dose (Week 0) and the last dose (Week 12). Blood samples are also collected prior to the first dose of the day during Week 2, 4 and 8 visits.
(Patients having a CSF level below the lower limit of quantitation of the assay are considered as zero.) CSF concentrations of 3-APS on Day 2 of Week 12 after twice daily oral administration for 12 weeks are as follows: […]

[2] = Example 13: single 150 mg dose of Modified-Release Coated Tablets in healthy elderly male volunteers, plasma pharmacokinetics; assay type: in vivo; conditions: human, single oral 150 mg (3 × 50 mg Table 5 tablets), elderly male subjects; for AUC(0-inf) / Cmax / AUC(0-t): male, po, 150 mg; for AUC(0-t): read-out: AUC0-Tlast
Protocol: (§2) In the following examples and elsewhere herein, terms are as defined below. The pharmacokinetic parameters were derived by non-compartmental analysis using WinNonlin® (Pharsight Corporation, Mountain View, Calif.) or SAS® for Windows® (SAS Institute Inc., Cary, N.C.).
For the 150 mg dose, three 50 mg tables are administered.

[3] = Example 10: 12-week placebo-controlled study in mild to moderate Alzheimer's Disease patients, plasma pharmacokinetics; assay type: in vivo, human; conditions: AD patients; for AUC∞: mean, only patients with estimable elimination rate constant
Description: as §2
AUCss—the area under the plasma concentrations versus time curve during a dosing interval at steady state.
as §1

[4] = Example 11: additional tests, crossing of the blood/brain barrier; assay type: in vivo, human; conditions: treated AD patients
[5] = test system: mild to moderate AD patients; experiment: Example 11: open-label extension in AD patients, psychometric tests (ADAS-cog, CDR); assay type: in vivo, human; conditions: for average CDR score (change): after 20 months total on study medication, reported 12-month mean change +1.4 to 2.2 points in comparable patients
Description: The ADAS-cog test is described in […] Annals of Neurology 23:477-484, which is incorporated herein by reference. It is a validated scale developed specifically as a research instrument to evaluate the severity of cognitive deficits characteristic of patients with AD. This test can usually be administered to participants in less than one hour. The ADAS-cog ranges from 0 to 70 points, with higher scores indicating a greater degree of cognitive impairment. Improved performance can be measured in patients treated with formulations of the invention compared to placebo-treated patients at various time intervals. Improvement can be measured by detecting an improved score in the treated patients compared to untreated controls after 6 months, preferably 12 months, more preferably 18 months or longer. […] Patients with Alzheimer's disease typically show an annual increase in ADAS-cog scores of from about 4-9. An improvement would provide for a lessening in the increase compared to untreated controls, for example, an annual increase of less than about 5 points or 4 points, preferably 3 points, more preferably 2 points or 1 point or even a stabilization or decrease in the score.
The CDR is described in Morris, J (1993) Neurology 43: 2412-2414, which is incorporated herein by reference. Further to the discussion of the CDR test below, it is a global rating scale of dementia that is derived from ratings of impairment assigned by an independent rater in six domains, after approximately a 90-minute interview of the caregiver and participant (Hughes C P, Berg L, Danziger W L, et al. A New Clinical Scale for the Staging of Dementia. Brit. J. Psychiat 1982; 140: 566-572). The CDR scale is from 0-18 with a higher score indicating a worsening impairment. Impairment in each of the six domains is rated as “none” (O), “questionable” (0.5), “mild” (1), “moderate” (2) or “severe” (3). Improvement can be measured by detecting a lower score in the treated patients compared to controls after 6 months, preferably 12 months, more preferably 18 months or longer. […] Patients with Alzheimer's disease typically show an annual increase in CDR scores of from about 1-3. An improvement would provide for an annual increase of less than about 3 points or 2 points, preferably 1 point, more preferably 0.5 points or 0.25 points or even an improvement (reduction) in the score.
The patients from the clinical studies in Example 10 are offered 3-APS (formulation of Table 5 above) at 150 mg BID for an additional 17 months (thus, 20 months total) in an open-label study. For doses at multiples of 50 mg, multiple 50 mg tables are administered. Twenty-four mild to moderate AD patients complete the study. Psychometric tests (ADAS-cog) are performed at each visit, that is every 3 months for the first 9 months and every 4 months for the last […]. Overall, approximately 70% of the mild AD patients show stabilized or improved cognitive function tests after 20 months.

[6] = Fasting Conditions, n = 11, mean
[7] = 50 mg BID (Table 5 tablet), Week 0 (single dose), n = 15, mean
[8] = 100 mg BID (Table 5 tablet), Week 0 (single dose), n = 16, mean
[9] = 150 mg BID (Table 5 tablet), Week 0 (single dose), n = 14, mean

## NCCCS(=O)(=O)O [3-APS, 3-amino-1-propanesulfonic acid]
[1]; dose 50 mg twice daily oral for 12 weeks, Day 2 of Week 12, read-out: CSF concentration with mean ± standard deviation
  concentration at 5 h: 1.07 ± 1.8 ng/mL
[1]; dose 100 mg twice daily oral for 12 weeks, Day 2 of Week 12, read-out: CSF concentration with mean ± standard deviation
  concentration at 5 h: 4.36 ± 2.66 ng/mL
[1]; dose 150 mg twice daily oral for 12 weeks, Day 2 of Week 12, read-out: CSF concentration with mean ± standard deviation
  concentration at 5 h: 3.87 ± 2.74 ng/mL
[1]; oral, 5 hours post-dose on Week 12, range of means across dose groups, levels below lower limit of quantitation considered as zero, read-out: mean concentrations of 3-APS in the cerebrospinal fluid (CSF)
  concentration at 5 h: 2.61 to 7.33 ng/mL
[2]; Fed Conditions, n = 10, median
  Tmax: 5.5 h
[2]; [6]
  AUC(0-inf): 3280 ng·h/mL
  Cmax: 772 ng/mL
  AUC(0-t): 3210 ng·h/mL
[2]; Fed Conditions, n = 10, mean
  AUC(0-inf): 5310 ng·h/mL
  Cmax: 980 ng/mL
  AUC(0-t): 5160 ng·h/mL
[3]; 50 mg BID (Table 5 tablet), Week 0 (single dose)
  AUC∞: 1396 ng·h/mL
[3]; [7]
  AUC(0-t): 1321 ng·h/mL
  Cmax: 310 ng/mL
[3]; 50 mg BID (Table 5 tablet), Week 12 (repeated), n = 15, median
  Tmax: 3 h
[3]; 100 mg BID (Table 5 tablet), Week 0 (single dose)
  AUC∞: 2569 ng·h/mL
[3]; [8]
  AUC(0-t): 2467 ng·h/mL
  Cmax: 618 ng/mL
[3]; 100 mg BID (Table 5 tablet), Week 0 (single dose), n = 16, median
  Tmax: 4.5 h
[3]; 100 mg BID (Table 5 tablet), Week 12 (repeated), n = 14, median
  Tmax: 3.5 h
[3]; 150 mg BID (Table 5 tablet), Week 0 (single dose)
  AUC∞: 3418 ng·h/mL
[3]; [9]
  AUC(0-t): 2792 ng·h/mL
  Cmax: 624 ng/mL
[3]; 150 mg BID (Table 5 tablet), Week 12 (repeated), n = 11, median
  Tmax: 3 h
[4]
  crossing of the blood/brain barrier: crossed the blood/brain barrier
[5]; 150 mg BID open-label (Table 5 tablet), after 20 months
  mild AD patients showing stabilized or improved cognitive function tests: approximately 70%
[5]; mild AD patients (n=13), 150 mg BID open-label, 20 months, comparable historical controls +8.6 points
  change from baseline in average ADAS-cog score: +3.5 points
[5]; mild AD patients
  average CDR score (change): +2.36 points
[5]; mild to moderate AD patients (n=24), 150 mg BID open-label, 20 months, comparable historical controls +10.3 points
  average ADAS-cog score (change): +7.8 points
[5]; moderate AD patients
  average CDR score (change): 2.77 points
